This is an account of results in US7098233B2 (priority 2001, dated 2006).

Series [1] has as its target T1, rat 5-HT6 stably transfected to HEK293 (Rattus norvegicus, UniProt P31388).
T1 construct: expressed in transfected cells; host or cells: HEK293
The experiment in a line: 5-HT6 receptor binding, [3H]-LSD displacement.

Series [2] deals with T2, human 5-HT7 receptor stably transfected to CHO cells (Homo sapiens, UniProt P34969).
T2 construct: expressed in transfected cells; host or cells: CHO
T2 sequence (P34969 whole entry): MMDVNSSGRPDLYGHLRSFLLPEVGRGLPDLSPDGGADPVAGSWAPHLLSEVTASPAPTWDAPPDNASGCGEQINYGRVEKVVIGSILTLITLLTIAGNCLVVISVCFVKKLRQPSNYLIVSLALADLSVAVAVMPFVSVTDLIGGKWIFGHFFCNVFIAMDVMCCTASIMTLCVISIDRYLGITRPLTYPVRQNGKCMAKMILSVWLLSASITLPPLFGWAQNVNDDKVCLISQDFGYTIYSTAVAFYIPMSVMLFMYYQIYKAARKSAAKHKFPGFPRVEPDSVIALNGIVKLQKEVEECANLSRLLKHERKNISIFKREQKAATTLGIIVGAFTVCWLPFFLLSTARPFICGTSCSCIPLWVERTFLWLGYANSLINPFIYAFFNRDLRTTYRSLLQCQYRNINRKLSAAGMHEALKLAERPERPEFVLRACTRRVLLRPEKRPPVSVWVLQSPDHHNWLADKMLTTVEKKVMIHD
The experiment in a line: 5-HT7 receptor binding, [3H]-LSD displacement.

The target in a further series is T3, 5-HT1a (Homo sapiens, UniProt P08908).
T3 sequence (P08908 1-422): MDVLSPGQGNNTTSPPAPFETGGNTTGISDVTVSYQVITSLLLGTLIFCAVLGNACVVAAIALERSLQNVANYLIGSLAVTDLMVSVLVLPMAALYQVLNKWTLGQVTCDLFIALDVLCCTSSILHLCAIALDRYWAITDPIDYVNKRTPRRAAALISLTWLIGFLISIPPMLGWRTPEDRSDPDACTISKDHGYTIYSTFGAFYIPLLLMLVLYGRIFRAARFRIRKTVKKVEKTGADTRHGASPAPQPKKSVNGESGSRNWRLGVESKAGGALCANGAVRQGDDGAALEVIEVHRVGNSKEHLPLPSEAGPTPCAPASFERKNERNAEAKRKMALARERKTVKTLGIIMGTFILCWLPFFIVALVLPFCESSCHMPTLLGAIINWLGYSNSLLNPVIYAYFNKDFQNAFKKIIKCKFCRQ
In words: Binding affinity for serotonin subtype 5-HT1a.

Another series addresses 5-HT1b (Homo sapiens, UniProt P28222). In words: Binding affinity for serotonin subtype 5-HT1b.
For a further series, the target named is 5-HT1d (Homo sapiens, UniProt P28221). In words: Binding affinity for serotonin subtype 5-HT1d.
The next series has as its target 5-HT2a (Homo sapiens, UniProt P28223). In words: biochemical. The class given is binding.
The target in a further series is 5-HT2b (Homo sapiens, UniProt P41595). In words: Binding affinity for serotonin subtype 5-HT2b.
The target of another series is T4, 5-HT2c (Homo sapiens, UniProt P28335).
T4 sequence (P28335 33-458): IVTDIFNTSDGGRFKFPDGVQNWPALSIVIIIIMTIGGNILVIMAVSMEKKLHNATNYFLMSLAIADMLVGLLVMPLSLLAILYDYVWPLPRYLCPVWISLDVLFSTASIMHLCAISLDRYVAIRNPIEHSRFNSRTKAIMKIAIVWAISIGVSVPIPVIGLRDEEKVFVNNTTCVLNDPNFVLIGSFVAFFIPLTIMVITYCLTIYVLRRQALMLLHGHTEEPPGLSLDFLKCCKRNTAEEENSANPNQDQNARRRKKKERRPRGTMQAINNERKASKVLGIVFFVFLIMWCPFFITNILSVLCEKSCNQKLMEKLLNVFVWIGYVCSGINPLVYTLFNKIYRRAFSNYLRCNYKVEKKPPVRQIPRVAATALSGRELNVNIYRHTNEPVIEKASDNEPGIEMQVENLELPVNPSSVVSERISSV
In words: Binding affinity for serotonin subtype 5-HT2c.

For the next series, the target named is T5, 5-HT3 (Homo sapiens, UniProt P46098).
T5 sequence (P46098 24-478): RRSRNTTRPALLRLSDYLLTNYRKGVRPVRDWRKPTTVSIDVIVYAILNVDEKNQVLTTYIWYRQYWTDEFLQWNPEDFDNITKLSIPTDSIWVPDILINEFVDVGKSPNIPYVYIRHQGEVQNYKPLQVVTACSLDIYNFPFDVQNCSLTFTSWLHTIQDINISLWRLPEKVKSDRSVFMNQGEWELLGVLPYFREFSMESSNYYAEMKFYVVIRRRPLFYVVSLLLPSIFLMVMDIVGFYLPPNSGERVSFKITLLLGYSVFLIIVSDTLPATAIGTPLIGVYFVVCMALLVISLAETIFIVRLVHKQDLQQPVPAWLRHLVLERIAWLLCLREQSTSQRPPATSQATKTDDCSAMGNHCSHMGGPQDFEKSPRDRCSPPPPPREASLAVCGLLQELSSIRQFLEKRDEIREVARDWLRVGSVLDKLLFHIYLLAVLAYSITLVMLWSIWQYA
The experiment in a line: Binding affinity for serotonin subtype 5-HT3.

For a further series, the target named is 5-HT4 (Homo sapiens, UniProt Q13639). The experiment in a line: Binding affinity for serotonin subtype 5-HT4.
5-HT4, sequence (Q13639 whole entry, species assumed): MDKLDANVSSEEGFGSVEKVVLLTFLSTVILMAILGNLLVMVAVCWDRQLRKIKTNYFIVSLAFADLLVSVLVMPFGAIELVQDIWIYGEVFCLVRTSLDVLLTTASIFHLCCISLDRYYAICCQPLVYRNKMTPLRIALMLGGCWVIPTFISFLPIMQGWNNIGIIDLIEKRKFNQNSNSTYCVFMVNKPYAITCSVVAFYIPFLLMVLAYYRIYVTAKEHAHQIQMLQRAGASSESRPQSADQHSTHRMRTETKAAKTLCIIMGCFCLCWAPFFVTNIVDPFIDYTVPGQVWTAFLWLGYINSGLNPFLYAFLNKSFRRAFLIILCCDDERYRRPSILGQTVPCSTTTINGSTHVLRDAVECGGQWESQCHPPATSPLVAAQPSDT
A further series deals with 5-HT5a (Homo sapiens, UniProt P47898). In words: Binding affinity for serotonin subtype 5-HT5a.
5-HT5a, sequence (P47898 whole entry, species assumed): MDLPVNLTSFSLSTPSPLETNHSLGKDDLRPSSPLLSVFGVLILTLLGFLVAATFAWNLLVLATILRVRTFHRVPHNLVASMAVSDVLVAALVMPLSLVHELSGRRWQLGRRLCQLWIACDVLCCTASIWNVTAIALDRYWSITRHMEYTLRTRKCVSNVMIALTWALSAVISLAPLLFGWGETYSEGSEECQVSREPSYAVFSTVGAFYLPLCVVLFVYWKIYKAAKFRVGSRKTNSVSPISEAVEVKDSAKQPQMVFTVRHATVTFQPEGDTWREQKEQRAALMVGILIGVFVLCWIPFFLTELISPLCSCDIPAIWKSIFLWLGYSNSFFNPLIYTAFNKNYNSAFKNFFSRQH
A further series concerns the target 5-HT transporter (Homo sapiens, UniProt P31645). In words: Binding affinity for 5-HT transporter.
Another series has as its target D1 dopaminergic (Homo sapiens, UniProt P21728). In words: Receptor panel binding: D1 dopaminergic.
For another series, the target named is D2 dopaminergic (Homo sapiens, UniProt P14416). In words: Receptor panel binding: D2 dopaminergic.
D2 dopaminergic, sequence (P14416 whole entry): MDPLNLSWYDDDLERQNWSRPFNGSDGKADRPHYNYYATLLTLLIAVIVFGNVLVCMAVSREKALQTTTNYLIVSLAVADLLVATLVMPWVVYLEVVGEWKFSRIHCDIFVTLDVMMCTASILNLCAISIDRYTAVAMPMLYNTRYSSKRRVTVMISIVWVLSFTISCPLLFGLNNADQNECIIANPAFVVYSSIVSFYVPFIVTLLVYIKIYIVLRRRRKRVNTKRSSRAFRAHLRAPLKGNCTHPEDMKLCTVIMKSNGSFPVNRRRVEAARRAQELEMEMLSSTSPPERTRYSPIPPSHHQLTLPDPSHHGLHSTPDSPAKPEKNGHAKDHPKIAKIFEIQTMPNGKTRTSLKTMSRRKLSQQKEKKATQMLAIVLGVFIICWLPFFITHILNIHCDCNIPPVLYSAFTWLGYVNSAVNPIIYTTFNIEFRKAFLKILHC
Another series addresses D3 dopaminergic (Homo sapiens, UniProt P35462). In words: Receptor panel binding: D3 dopaminergic.
For the next series, the target named is T6, D4,4 dopaminergic (Homo sapiens, UniProt P21917).
T6 sequence (P21917 1-419): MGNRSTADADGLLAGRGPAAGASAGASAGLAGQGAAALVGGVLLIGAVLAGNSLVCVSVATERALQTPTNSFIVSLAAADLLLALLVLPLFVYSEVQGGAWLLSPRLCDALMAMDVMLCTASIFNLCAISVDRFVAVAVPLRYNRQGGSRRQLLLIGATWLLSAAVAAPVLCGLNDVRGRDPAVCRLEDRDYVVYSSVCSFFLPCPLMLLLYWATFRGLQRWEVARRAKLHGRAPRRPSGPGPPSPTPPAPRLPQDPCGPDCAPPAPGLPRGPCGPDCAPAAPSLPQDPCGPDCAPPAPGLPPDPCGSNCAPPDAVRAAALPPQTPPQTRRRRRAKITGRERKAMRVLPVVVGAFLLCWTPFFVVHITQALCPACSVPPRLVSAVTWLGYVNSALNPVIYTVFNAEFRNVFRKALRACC
In words: Receptor panel binding: D4,4 dopaminergic.

A further series concerns the target D5 dopaminergic (Homo sapiens, UniProt P21918). The experiment in a line: Receptor panel binding: D5 dopaminergic.
The target of another series is NMDA. In words: Receptor panel binding: NMDA. To be noted: read-out: affinity value, NMDA.
The target of series [3] is muscarinic (non-selective). The experiment in a line: Receptor panel binding: muscarinic. To be noted: read-out: affinity value, muscarinic (non-selective).
The next series has as its target H1 histaminergic (Homo sapiens, UniProt P35367). In words: Receptor panel binding: H1 histaminergic.
Another series addresses opiate (non-selective). In words: Receptor panel binding: opiate. To be noted: read-out: affinity value, opiate (non-selective).
The next series concerns the target V2 of vasopressin (Homo sapiens, UniProt P30518). In words: Receptor panel binding: vasopressin V2.
The target of the next series is NA transporter (Homo sapiens, UniProt P23975). In words: Receptor panel binding: NA transporter.
The next series concerns the target DA transporter (Homo sapiens, UniProt Q01959). In words: Receptor panel binding: DA transporter.
The target in the next series is PCP. The experiment in a line: Receptor panel binding: PCP. The conditions noted are these: read-out: affinity (Ki), PCP.
For another series, the target named is nicotinic receptors. The experiment in a line: Receptor panel binding: nicotinic receptors. The conditions noted are these: read-out: affinity (Ki), nicotinic receptors.
Another series has as its target vasopressin V1. In words: Receptor panel binding: vasopressin V1. To be noted: read-out: affinity (Ki), vasopressin V1.

T1 sequence (P31388 whole entry): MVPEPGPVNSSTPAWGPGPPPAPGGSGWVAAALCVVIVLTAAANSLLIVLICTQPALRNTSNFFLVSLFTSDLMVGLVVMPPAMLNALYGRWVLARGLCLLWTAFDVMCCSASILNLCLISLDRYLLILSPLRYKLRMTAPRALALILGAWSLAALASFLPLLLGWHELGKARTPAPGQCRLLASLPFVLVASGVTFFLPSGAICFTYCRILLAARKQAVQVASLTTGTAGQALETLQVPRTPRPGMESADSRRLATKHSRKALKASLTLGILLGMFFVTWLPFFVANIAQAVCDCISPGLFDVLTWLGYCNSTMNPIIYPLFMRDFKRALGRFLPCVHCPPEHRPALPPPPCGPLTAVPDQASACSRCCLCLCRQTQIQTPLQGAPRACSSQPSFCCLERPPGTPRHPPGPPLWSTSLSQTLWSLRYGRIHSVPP
D1 dopaminergic, sequence (P21728 whole entry): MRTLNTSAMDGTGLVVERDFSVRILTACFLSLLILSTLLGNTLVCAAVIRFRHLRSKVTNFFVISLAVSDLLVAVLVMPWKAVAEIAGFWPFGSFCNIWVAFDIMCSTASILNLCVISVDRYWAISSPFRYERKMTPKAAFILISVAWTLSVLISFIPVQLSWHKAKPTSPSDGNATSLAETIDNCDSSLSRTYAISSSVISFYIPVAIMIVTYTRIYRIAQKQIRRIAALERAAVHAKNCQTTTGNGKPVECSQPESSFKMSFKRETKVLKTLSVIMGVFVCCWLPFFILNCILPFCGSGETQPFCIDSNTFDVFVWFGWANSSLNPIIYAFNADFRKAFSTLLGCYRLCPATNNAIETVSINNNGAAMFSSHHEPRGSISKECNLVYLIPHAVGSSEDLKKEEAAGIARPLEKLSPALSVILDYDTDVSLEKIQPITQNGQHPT
5-HT2a, sequence (P28223 whole entry): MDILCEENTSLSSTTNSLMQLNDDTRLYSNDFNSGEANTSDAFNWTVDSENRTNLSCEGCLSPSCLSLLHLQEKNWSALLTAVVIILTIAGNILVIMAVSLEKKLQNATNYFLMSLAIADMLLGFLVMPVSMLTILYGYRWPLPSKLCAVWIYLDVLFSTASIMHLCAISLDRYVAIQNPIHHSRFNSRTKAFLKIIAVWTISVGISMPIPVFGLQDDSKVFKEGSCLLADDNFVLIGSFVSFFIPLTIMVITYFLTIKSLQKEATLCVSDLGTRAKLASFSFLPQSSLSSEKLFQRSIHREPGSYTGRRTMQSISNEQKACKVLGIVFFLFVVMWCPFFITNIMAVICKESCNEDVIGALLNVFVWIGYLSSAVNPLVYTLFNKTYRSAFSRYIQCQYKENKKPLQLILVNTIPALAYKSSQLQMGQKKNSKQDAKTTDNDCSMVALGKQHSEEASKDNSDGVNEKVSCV
H1 histaminergic, sequence (P35367 whole entry): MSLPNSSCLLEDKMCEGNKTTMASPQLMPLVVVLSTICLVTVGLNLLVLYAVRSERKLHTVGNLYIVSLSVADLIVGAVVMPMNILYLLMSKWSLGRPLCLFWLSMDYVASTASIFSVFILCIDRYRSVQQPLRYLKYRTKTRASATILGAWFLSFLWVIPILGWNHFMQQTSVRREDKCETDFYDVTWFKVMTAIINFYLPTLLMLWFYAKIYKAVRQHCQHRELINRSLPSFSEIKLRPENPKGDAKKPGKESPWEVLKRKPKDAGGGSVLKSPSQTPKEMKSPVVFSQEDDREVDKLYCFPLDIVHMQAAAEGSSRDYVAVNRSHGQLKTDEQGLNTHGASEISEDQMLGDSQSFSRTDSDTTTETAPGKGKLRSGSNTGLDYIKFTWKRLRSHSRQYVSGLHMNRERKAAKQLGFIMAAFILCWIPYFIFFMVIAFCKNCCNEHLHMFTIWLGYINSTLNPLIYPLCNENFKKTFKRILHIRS
D3 dopaminergic, sequence (P35462 whole entry): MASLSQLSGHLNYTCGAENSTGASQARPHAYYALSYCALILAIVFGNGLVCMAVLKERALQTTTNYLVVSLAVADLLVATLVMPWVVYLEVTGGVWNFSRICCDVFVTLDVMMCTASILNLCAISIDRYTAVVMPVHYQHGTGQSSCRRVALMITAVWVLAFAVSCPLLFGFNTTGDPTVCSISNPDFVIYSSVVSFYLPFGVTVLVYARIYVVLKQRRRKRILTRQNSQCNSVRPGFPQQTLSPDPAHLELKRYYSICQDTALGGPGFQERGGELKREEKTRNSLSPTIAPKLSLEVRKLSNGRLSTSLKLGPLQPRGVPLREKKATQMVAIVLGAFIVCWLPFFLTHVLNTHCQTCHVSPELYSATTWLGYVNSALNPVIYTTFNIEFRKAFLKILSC
5-HT transporter, sequence (P31645 whole entry): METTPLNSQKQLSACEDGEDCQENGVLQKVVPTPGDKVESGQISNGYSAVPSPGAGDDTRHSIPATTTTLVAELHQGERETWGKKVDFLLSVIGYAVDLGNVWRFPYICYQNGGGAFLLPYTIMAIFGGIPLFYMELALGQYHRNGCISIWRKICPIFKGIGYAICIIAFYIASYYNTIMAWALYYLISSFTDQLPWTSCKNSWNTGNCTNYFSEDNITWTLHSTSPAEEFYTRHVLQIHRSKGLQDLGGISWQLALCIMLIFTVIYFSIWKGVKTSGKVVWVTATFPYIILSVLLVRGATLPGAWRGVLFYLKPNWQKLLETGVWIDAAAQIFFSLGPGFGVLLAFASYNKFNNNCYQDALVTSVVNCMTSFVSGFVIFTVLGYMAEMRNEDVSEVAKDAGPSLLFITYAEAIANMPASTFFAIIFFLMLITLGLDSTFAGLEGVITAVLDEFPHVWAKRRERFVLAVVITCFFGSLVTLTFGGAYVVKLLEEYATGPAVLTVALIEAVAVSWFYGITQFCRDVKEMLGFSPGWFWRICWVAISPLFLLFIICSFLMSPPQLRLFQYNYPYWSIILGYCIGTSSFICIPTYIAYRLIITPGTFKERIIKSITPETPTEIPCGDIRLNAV
V2 of vasopressin, sequence (P30518 whole entry): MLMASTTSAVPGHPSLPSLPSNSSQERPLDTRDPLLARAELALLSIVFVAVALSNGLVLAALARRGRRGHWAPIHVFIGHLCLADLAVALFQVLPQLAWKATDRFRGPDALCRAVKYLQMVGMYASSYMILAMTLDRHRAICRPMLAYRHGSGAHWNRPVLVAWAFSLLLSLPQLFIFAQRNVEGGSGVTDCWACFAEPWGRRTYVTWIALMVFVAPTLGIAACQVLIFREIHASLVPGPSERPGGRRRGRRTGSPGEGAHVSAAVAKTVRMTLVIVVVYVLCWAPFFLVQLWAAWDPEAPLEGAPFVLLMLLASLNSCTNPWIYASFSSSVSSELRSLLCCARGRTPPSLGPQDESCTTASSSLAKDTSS

For orientation: IC50 means the concentration that inhibits the measured activity by half. In series [1], `NCCc1c[nH]c2ccc(O)cc12` [Serotonin, reference compound] gave an IC50 of 171 nM and a Ki of 87 nM.
As a reminder, the melting point is the temperature of the solid-liquid transition. Molecule `Cc1[nH]c2ccc(Br)cc2c1CCN(C)C` [ST 1938, 5-bromo-2-methyl-N,N-dimethyltryptamine] had a melting point of 135 to 136 °C. In series [1], the “5-HT6 binding affinity compared with Serotonin (in words)” value was “greater than that observed for Serotonin”, the IC50 came out at 62 nM, the Ki was determined as 32 nM and the “affinity for rat recombinant 5-HT6 receptor (in words)” value is on record as “high affinity”. In addition, the “selectivity of binding for 5-HT6 receptor (in words)” value in [1] (over other serotonin sites and other neurotransmitter receptors) was “mixed activity for 5-HT6 and 5-HT7 serotonin receptors”. For the same molecule, in series [2], the IC50 turned out to be 158 nM, the Ki was determined as 47 nM and the “affinity for human recombinant 5-HT7 receptor (in words)” value is on record as “highest affinity”. The same molecule showed a Ki at 5-HT1a of 947 nM. This molecule also had a Ki at 5-HT1b above 1000 nM. The same molecule came in with a Ki at 5-HT1d above 1000 nM. The molecule also came in with a Ki on 5-HT2a above 1000 nM. At 5-HT2b, this molecule had a Ki of 154 nM. The same molecule displayed a Ki on 5-HT2c above 1000 nM. Also, the Ki at 5-HT3 is above 1000 nM. On 5-HT4, this molecule had a Ki above 1000 nM. The Ki on 5-HT5a was above 1000 nM. The Ki at 5-HT transporter is above 1000 nM. This molecule also had a Ki on D1 dopaminergic above 1000 nM. This molecule also registered a Ki at D2 dopaminergic above 1000 nM. For the same molecule, the Ki on D3 dopaminergic was above 1000 nM. For the same molecule, on D4,4 dopaminergic, the Ki was above 1000 nM. At D5 dopaminergic, this molecule came in with a Ki above 1000 nM. In addition, the Ki at NMDA was above 1000 nM. Further, the Ki in series [3] is above 1000 nM. Moreover, at H1 histaminergic, the Ki is above 1000 nM. Besides, the Ki at opiate (non-selective) was above 1000 nM. At V2 of vasopressin, this molecule had a Ki above 1000 nM. Besides, the Ki on NA transporter was above 1000 nM. Besides, the Ki on DA transporter is above 1000 nM. Also, the Ki at PCP is above 1000 nM. The Ki on nicotinic receptors is above 1000 nM. In addition, the Ki on vasopressin V1 is above 1000 nM.
